# Experimental data from patent US9655865B2, “Therapeutic treatment for metabolic syndrome, type 2 diabetes, obesity, or prediabetes” (VeroScience, LLC, priority 2002, dated 2017).
# Experiments:
# Assay type in all cases: in vivo
# [1] = tested on: male mice fed a high fat diet; assay: GBR versus bupropion in high fat diet mice (Example 11)
# Protocol: The effect of increasing central dopamine neuronal activity versus increasing central dopamine plus norepinephrine neuronal activity on body fat, blood glucose, plasma insulin, and insulin sensitivity was studied in male mice fed a high fat diet from 4 weeks of age until 24 weeks of age. These mice were maintained on this high fat diet while treated with either GBR (20 mg/kg) (a selective dopamine reuptake inhibitor) or bupropion (20 mg/kg) (a dopamine and norepinpehrine reuptake inhibitor) at doses that approximate their 50% maximal effective dose for these functions in vivo in rodents.
# [2] = tested on: obese, diabetic female ob/ob mice; assay: GBR 12909 and clonidine, alone and combined, 14 days in ob/ob mice with mild diabetes (Example 2); conditions: GBR 12909 about 20 mg/kg, clonidine about 0.1 mg/kg, once daily 14 days, controls 202+/−41
# Protocol: GBR 12909 is a specific dopamine reuptake inhibitor. Its use can increase the dopaminergic to noradrenergic neuronal activity in the central nervous system. However, by combining GBR 12909 with clonidine, a noradrenergic alpha 2 receptor agonist with preferential affinity for presynaptic alpha 2 sites, it is possible to further increase the dopamine to noradrenaline neuronal activity ratio in the central nervous system. A study was conducted to determine the interactive effects of GBR 12909 and clonidine on blood glucose level in ob/ob mice.
# Obese, diabetic female ob/ob mice (body weight of approximately 28 g) with mild diabetes were maintained on 14 hour daily photoperiods, housed one per cage and allowed to feed ad libitum. Different groups of these animals were randomized to once daily treatment with either a specific dopamine reuptake inhibitor, GBR 12909 at an approximate dose of 20 mg/kg body weight (n=4), or clonidine at an approximate dose of 0.1 mg/kg (n=5), these same dosages of GBR 12909 plus clonidine (n=3), or vehicle (control group; n=5-7) for a 14 day period. On the fifteenth day of the study and approximately 24 hours after the final treatment animals were sacrificed and blood samples were obtained for the analyses of blood glucose levels.
# [3] = tested on: obese, diabetic mice (ob/ob strain); assay: GBR 12909 once daily for 14 days in obese, diabetic ob/ob mice (Example 1); conditions: 30 mg/kg once daily 14 days
# Protocol: GBR 12909 (1-(2-[bis(4-Fluorophenyl)methoxy]ethyl)-4-(3-phenylpropyl)piperazine dihydrochloride) is a specific dopamine reuptake inhibitor. Systemic administration of GBR 12909 can increase the dopaminergic to noradrenergic neuronal activity in the central nervous system. A study was conducted to determine the effects of GBR 12909 upon blood glucose and plasma free fatty acid levels in obese, diabetic mice (ob/ob strain). The ob/ob mouse is hyperphagic, obese, insulin resistant, diabetic and dyslipidemic due to the absence of functional leptin as a result of a mutation in this gene. Starvation or calorie restriction of these mice leads to increases in plasma free fatty acid levels that can function over the long term to worsen diabetes.
# Different groups of obese, diabetic female (ob/ob) mice (body weight of approximately 33 g) maintained on 12 hour daily photoperiods, housed one per cage and allowed to feed ad libitum were randomized to once daily treatment with either a specific dopamine reuptake inhibitor, GBR 12909 at a dose of 30 mg/kg body weight (n=5-7) or vehicle (control group; n=5-7) for a 14 day period. On the fifteenth day of the study and approximately 24 hours after the final treatment animals were sacrificed and blood samples were obtained for the analyses of blood glucose and plasma free fatty acid and triglyceride levels.
# [4] = tested on: Female mice fed a high fat diet for 20 weeks; assay: GBR 12909 and FA, alone and combined, 14 days in high fat diet mice (Example 9); conditions: for body weight: 2 weeks treatment, normal weight for age matched controls=28 grams, FIG. 15; for plasma insulin levels: compared to lean controls, FIG. 12
# Protocol: Female mice at 4 weeks of age were fed a high fat diet for 20 weeks to induce diabetes and insulin resistance and continued on such diet while treated for 14 days with either GBR 12909 (10 mg/kg), FA (15 mg/kg), GBR 12909 (10 mg/kg) plus FA (15 mg/kg), or vehicle and sacrificed after 14 days of treatment for the analyses of body fat, blood glucose, plasma insulin, and plasma nitric oxide levels. The composite of body fat store level, blood glucose and plasma insulin was reduced the greatest in the GBR/FA group and by a magnitude more than additive of the individual GBR and FA groups combined. Only the GBR/FA group normalized plasma insulin levels. […] This effect was not observed with either GBR or FA treatments alone.
# [5] = tested on: high fat fed, hypertensive SHR rats; assay: Quinelorane and fusaric acid, alone and combined, in high fat fed hypertensive SHR rats (Example 5); conditions: SHR rats on high fat diet; for change from baseline body weight (weight loss): FA 12.5 mg/kg, FIGS. 1 and 2; for blood glucose: FIG. 6
# Protocol: Male SHR rats were maintained on 14 hour daily photoperiods and fed a high fat diet (60% of energy from fat; 5.24 kcal/gram weight) for 3 weeks and then divided into different groups and treated with either quinelorane (Q; a dopamine D2/D3 mixed receptor agonist) (0.075 mg/kg), fusaric acid (FA; a dopamine beta hydroxylase inhibitor) (12.5 mg/kg), quinelorane (0.075 mg/kg) plus FA (Q/FA) (12.5 mg/kg), or vehicle at 13 hours after light onset for 17 days. The doses of Q and FA were set at less than half maximal to effect central dopamine receptor binding functions and dopamine beta hydroxylase activity, respectively. […] Blood pressure measurements were taken at 14 days of treatment and animals were sacrificed at 18 days of treatment for analyses of body fat and humoral factors and metabolites. […] Respecting blood glucose, although both Q and FA reduced glucose level relative to vehicle, only the Q/FA regimen normalized blood glucose in these animals relative to vehicle (FIG. 6).
# [6] = tested on: obese, diabetic female ob/ob mice; assay: Fusaric acid and SKF 38393, alone and combined, 14 days in ob/ob mice (Example 4); conditions: fusaric acid 15 mg/kg, SKF 38393 10 mg/kg; for retroperitoneal fat pad weight / plasma triglyceride level: 14 days; for retroperitoneal fat pad weight: control 727+/−25; for plasma triglyceride level: controls 155+/−15; for blood glucose: once daily 14 days, controls 380+/−30
# Protocol: Fusaric acid is a dopamine beta hydroxylase inhibitor that reduces noradrenaline synthesis in noradrenergic neurons. It is not present in dopaminergic neurons and thus exerts no such effect there. SKF38393 is a post-synaptic dopamine D1 receptor agonist with no marked influence on noradrenergic neurons. A study was conducted to determine the interactive effects of fusaric acid plus SKF 38393 on body fat store levels, and blood glucose and plasma triglyceride levels in ob/ob mice. The ob/ob mouse is hyperphagic, obese, insulin resistant, diabetic and dyslipidemic due to the absence of functional leptin as a result of a mutation in this gene.
# Obese, diabetic female ob/ob mice (body weight of approximately 33 g) maintained on 14 hour daily photoperiods, housed one per cage and allowed to feed ad libitum were randomized to once daily treatment with either fusaric acid (15 mg/kg; n=6-8), SKF 38393 (10 mg/kg; n=6-8), both fusaric acid (15 mg/kg) and SKF 38393 (10 mg/kg) (n=6-8), or vehicle (control group; n=6-8) for a 14 day period. On the fifteenth day of the study and approximately 24 hours after the final treatment animals were sacrificed and blood samples were obtained for the analyses of blood glucose, plasma free fatty acid and triglyceride levels. Relative to controls, fusaric acid raised blood glucose from 380+/−30 mg/dl to 430+/−30 mg/dl and SKF 38393 reduced blood glucose to 290+/−55 mg/dl. However, fusaric acid plus SKF 38393 reduced blood glucose to 180+/−20 mg/dl. […] Neither fusaric acid nor SKF 38393 had any effect on retroperitoneal fat pad weight (735+/−43 mg and 735+/−50 mg, respectively versus control value of 727+/−25 mg) however, the combination of fusaric acid plus SKF 38393 reduced retroperitoneal fat pad weight to 680+/−25 mg.
# [7] = tested on: obese, diabetic female ob/ob mice; assay: Amphetamine with or without bromocriptine, 14 days in ob/ob mice (Example 3); conditions: amphetamine 3 mg/kg
# Description: Amphetamine is a selective presynaptic dopamine release enhancer. It also acts as a presynaptic noradrenergic release enhancer but at higher dosages that will counter the effect of the dopamine reuptake inhibition activity to improve metabolism. However, addition of a dopamine D2 receptor agonist will act to reduce any amphetamine-induced increase in synaptic noradrenaline level and therefore should produce a more pronounced desired effect on metabolic disease than amphetamine or the D2 receptor agonist alone. A study was conducted to determine the effects of low dose amphetamine (3 mg/kg) with or without the dopamine D2 receptor agonist bromocriptine (5-<10 mg/kg dose) upon body weight gain, blood glucose, plasma free fatty acid and triglyceride levels in obese, diabetic mice (ob/ob strain). […] The ob/ob mouse is hyperphagic, obese, insulin resistant, diabetic and dyslipidemic due to the absence of functional leptin as a result of a mutation in this gene. Starvation or calorie restriction of these mice leads to increases in plasma free fatty acid levels that can function over the long term to worsen diabetes.
# On the fifteenth day of the study and approximately 24 hours after the final treatment animals were sacrificed and blood samples were obtained for the analyses of blood glucose, plasma free fatty acid and triglyceride levels.
# [8] = tested on: Female C57 Black mice fed a high simple sugar/moderate fat diet (western diet); assay: GBR 12909, FA, clonidine and combinations in C57 Black mice on western diet, body fat (Example 6); conditions: GBR 25 mg/kg, FA 10 mg/kg, clonidine 0.075 mg/kg, 14 days, FIG. 7
# [9] = tested on: Female obese diabetic mice (ob/ob strain); assay: Bupropion and FA, alone and combined, 14 days in ob/ob mice (Example 7); conditions: bupropion 40 mg/kg, FA 10 mg/kg, FIG. 9
# Protocol: Female obese diabetic mice (ob/ob strain) at 6 weeks of age were fed standard rodent chow and different groups of animals (n=5-7/group) were treated with bupropion (40 mg/kg), FA (10 mg/kg), bupropion (40 mg/kg) plus FA (10 mg/kg), or vehicle for 14 days and then sacrificed for the analyses of blood glucose and body fat store level. […] Moreover, these reductions were more than additive in magnitude relative to the effects of the individual compounds combined.
# [10] = GBR 12909 10 mg/kg, FA 15 mg/kg, 14 days
# [11] = relative to vehicle, sacrifice at 18 days
compound,measurement,setting,value
"Cl.Cl.Fc1ccc(C(OCCN2CCN(CCCc3ccccc3)CC2)c2ccc(F)cc2)cc1 [GBR 12909, 1-(2-[bis(4-Fluorophenyl)methoxy]ethyl)-4-(3-phenylpropyl)piperazine dihydrochloride]",body fat (intraabdominal fat pad),"[1]; 20 mg/kg, compared to vehicle and Bupropion, FIG. 17",significantly reduced
same,HOMA-IR values,"[1]; 20 mg/kg, compared to vehicle and Bupropion, FIG. 19",significantly reduced
same,blood glucose,"[1]; 20 mg/kg, relative to vehicle and Bupropion, FIG. 18",significantly reduced
same,reduction of plasma insulin compared with bupropion,[1]; equal dose 20 mg/kg,much more effective
same,blood glucose,[2],221 ± 31 mg/dL
same,reduction of plasma triglyceride level relative to controls,[3],approximately 32%
same,blood glucose,"[3]; about 24 h after final treatment, controls 455+/−50",145 ± 25 mg/dL
same,final body weight,[3]; controls 42+/−2,28 ± 0.5 g
same,plasma free fatty acid levels,[3]; controls 780+/−40,450 ± 20 µM
same,body weight,[4],not observed
same,blood glucose,"[4]; GBR 12909 10 mg/kg, FA 15 mg/kg, 14 days, FIG. 11",no significant effect
same,plasma insulin levels,[4]; [10],significantly higher
CCCN1CCC[C@@H]2Cc3nc(N)ncc3C[C@H]21 [Q],desensitization to the effects on weight loss,"[5]; Q 0.075 mg/kg, 17 days",exhibited desensitization
same,change from baseline body weight (weight loss),"[5]; Q 0.075 mg/kg, 17 days",modest if any effects
same,blood glucose,[5]; relative to vehicle,reduced
same,plasma endothelin-1 (endothelin 1-21 fragment),[5]; [11],no significant effect
same,plasma nitric oxide,[5]; [11],no significant effect
"Cl.Oc1cc2c(cc1O)C(c1ccccc1)CNCC2 (centres unmarked) [SKF 38393, 1-phenyl-7,8-dihydroxy-2,3,4,5-tetrahydro-1H-3-benzazepine hydrochloride]",retroperitoneal fat pad weight,[6],735 ± 50 mg
same,plasma triglyceride level,[6],130 ± 7 mg/dL
same,blood glucose,[6],290 ± 55 mg/dL
CC(N)Cc1ccccc1 (centres unmarked) [amphetamine],plasma free fatty acid levels,"[7]; 14 days, controls 900+/−100",510 ± 30 µM
same,final body weight,"[7]; bromocriptine 5-<10 mg/kg, 14 days, controls 44+/−1",no effect
same,plasma triglyceride levels,"[7]; bromocriptine 5-<10 mg/kg, 14 days, controls 175+/−21",70 ± 7 mg/dL
same,blood glucose,"[7]; bromocriptine 5-<10 mg/kg, once daily 14 days, controls 422+/−46",348 ± 22 mg/dL
"Clc1cccc(Cl)c1NC1=NCCN1 [clonidine, 2-(2,6-dichloroanilino)-2-imidazoline]",blood glucose,[2],250 ± 35 mg/dL
same,body fat store level (intraabdominal fat pad),[8],no effect
"CCCCc1ccc(C(=O)O)nc1 [fusaric acid, 5-butyl-2-pyridinecarboxylic acid]",change from baseline body weight (weight loss),"[5]; Q 0.075 mg/kg, 17 days",modest if any effects
same,blood glucose,[5]; relative to vehicle,reduced
same,plasma C-reactive protein (CRP) levels,[5]; [11],no significant effect
same,blood glucose,[9],no significant effect
same,retroperitoneal fat pad weight,[6],735 ± 43 mg
same,plasma triglyceride level,[6],170 ± 27 mg/dL
same,blood glucose,[6],430 ± 30 mg/dL
same,body weight,[4],not observed
same,plasma insulin levels,[4]; [10],significantly higher
